Results published in ChEMBL document CHEMBL5143749, “Discovery of Insulin/GLP-1/Glucagon Triagonists for the Treatment of Diabetes and Obesity” (ACS Med Chem Lett, 2022).

Key:
Homo sapiens = species on record: Homo sapiens; test: Selectivity ratio of EC50 for human […] expressed in frozen cells to EC50 for human GLP1R expressed in frozen cells; format: cell-based
[1] = target: Glucagon-like peptide 1 receptor (Homo sapiens, UniProt P43220); test: Agonist activity at human GLP1R expressed in frozen cells assessed as measuring the cAMP level incubated for 1 hr by HitHunter chemiluminescence based assay; format: functional, cell-based
Glucagon receptor = Glucagon receptor (Homo sapiens, UniProt P47871); test: Agonist activity at human GCGR expressed in frozen cells assessed as measuring the cAMP level incubated for 1 hr by HitHunter chemiluminescence based assay; format: functional, cell-based
Chain of Glucagon receptor (P47871 whole entry): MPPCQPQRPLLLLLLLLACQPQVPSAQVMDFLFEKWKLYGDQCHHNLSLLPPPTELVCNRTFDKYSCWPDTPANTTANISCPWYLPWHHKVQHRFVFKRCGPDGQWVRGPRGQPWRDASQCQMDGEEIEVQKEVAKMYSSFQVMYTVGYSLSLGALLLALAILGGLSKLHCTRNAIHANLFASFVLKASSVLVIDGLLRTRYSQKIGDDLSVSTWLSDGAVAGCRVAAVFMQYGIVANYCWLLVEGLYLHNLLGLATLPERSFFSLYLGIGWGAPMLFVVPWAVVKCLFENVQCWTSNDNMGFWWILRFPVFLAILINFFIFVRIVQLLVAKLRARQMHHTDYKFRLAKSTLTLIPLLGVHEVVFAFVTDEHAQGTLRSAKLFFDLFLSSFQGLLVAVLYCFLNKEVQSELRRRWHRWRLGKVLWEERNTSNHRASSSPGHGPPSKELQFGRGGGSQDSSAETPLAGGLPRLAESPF

Chain of Glucagon-like peptide 1 receptor (P43220 whole entry): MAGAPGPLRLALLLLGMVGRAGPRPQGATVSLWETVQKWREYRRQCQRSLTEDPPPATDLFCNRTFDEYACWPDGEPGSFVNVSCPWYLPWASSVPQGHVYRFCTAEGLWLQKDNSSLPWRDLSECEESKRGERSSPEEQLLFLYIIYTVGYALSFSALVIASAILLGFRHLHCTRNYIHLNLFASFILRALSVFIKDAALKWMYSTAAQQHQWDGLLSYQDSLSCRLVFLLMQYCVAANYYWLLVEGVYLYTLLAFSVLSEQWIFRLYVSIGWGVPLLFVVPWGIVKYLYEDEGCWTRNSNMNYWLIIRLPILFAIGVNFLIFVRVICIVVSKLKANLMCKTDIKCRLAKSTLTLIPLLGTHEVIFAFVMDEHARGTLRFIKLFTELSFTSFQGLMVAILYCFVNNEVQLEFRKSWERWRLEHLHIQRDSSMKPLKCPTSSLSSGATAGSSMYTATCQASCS

EC50 [1] | EC50 (Glucagon receptor) | Compound | Ratio EC50 (Homo sapiens)
– | – | CCCCCCCCCCCCCCCC(=O)N[C@@H](CCC(=O)N[C@@H](CCC(=O)NCCCC[C@H](NC(=O)[C@H](CC(=O)O)NC(=O)[C@H](CO)NC(=O)[C@@H](NC(=O)[C@H](Cc1ccccc1)NC(=O)[C@@H](NC(=O)CNC(=O)[C@H](CCC(N)=O)NC(=O)C(C)(C)NC(=O)[C@@H](N)Cc1c[nH]cn1)[C@@H](C)O)[C@@H](C)O)C(=O)N[C@@H](CO)C(=O)N[C@@H](CCCCN)C(=O)N[C@@H](Cc1ccc(O)cc1)C(=O)N[C@@H](CC(C)C)C(=O)N[C@@H](CC(=O)O)C(=O)NC(C)(C)C(=O)N[C@@H](CCCNC(=N)N)C(=O)N[C@@H](C)C(=O)N[C@@H](C)C(=O)N[C@@H](CCC(N)=O)C(=O)N[C@@H](CC(=O)O)C(=O)N[C@@H](Cc1ccccc1)C(=O)N[C@H](C(=O)N[C@@H](CCC(N)=O)C(=O)N[C@@H](Cc1c[nH]c2ccccc12)C(=O)N[C@@H](CC(C)C)C(=O)N[C@@H](CC(C)C)C(=O)N[C@@H](CC(=O)O)C(=O)N[C@H](C(=O)N[C@@H](CCCCN)C(=O)N[C@@H](CCCCN=[N+]=[N-])C(N)=O)[C@@H](C)O)C(C)C)C(=O)O)C(=O)O | 1.4
1.04 nM | – | CCCCCCCCCCCCCCCC(=O)N[C@@H](CCC(=O)N[C@@H](CCC(=O)NCCCC[C@H](NC(=O)[C@H](CC(=O)O)NC(=O)[C@H](CO)NC(=O)[C@@H](NC(=O)[C@H](Cc1ccccc1)NC(=O)[C@@H](NC(=O)CNC(=O)[C@H](CCC(N)=O)NC(=O)[C@@H](CO)NC(=O)[C@@H](N)Cc1c[nH]cn1)[C@@H](C)O)[C@@H](C)O)C(=O)N[C@@H](CO)C(=O)N[C@@H](CC(C)C)C(=O)N[C@@H](Cc1ccc(O)cc1)C(=O)N[C@@H](CC(C)C)C(=O)N[C@@H](CC(=O)O)C(=O)NC(C)(C)C(=O)N[C@@H](CCCNC(=N)N)C(=O)N[C@@H](C)C(=O)N[C@@H](C)C(=O)N[C@@H](CCC(N)=O)C(=O)N[C@@H](CC(=O)O)C(=O)N[C@@H](Cc1ccccc1)C(=O)N[C@H](C(=O)N[C@@H](CCC(N)=O)C(=O)N[C@@H](Cc1c[nH]c2ccccc12)C(=O)N[C@@H](CC(C)C)C(=O)N[C@@H](CC(C)C)C(=O)N[C@@H](CC(N)=O)C(=O)N[C@H](C(=O)N[C@@H](CCCCN=[N+]=[N-])C(=O)N[C@@H](CCC(N)=O)C(=O)O)[C@@H](C)O)C(C)C)C(=O)O)C(=O)O | –
– | – | CCCCCCCCCCCCCCCC(=O)N[C@@H](CCC(=O)N[C@@H](CCC(=O)NCCCC[C@H](NC(=O)[C@H](CC(=O)O)NC(=O)[C@H](CO)NC(=O)[C@@H](NC(=O)[C@H](Cc1ccccc1)NC(=O)[C@@H](NC(=O)CNC(=O)[C@H](CCC(N)=O)NC(=O)[C@@H](CO)NC(=O)[C@@H](N)Cc1cnc[nH]1)[C@@H](C)O)[C@@H](C)O)C(=O)N[C@@H](CO)C(=O)N[C@@H](CCCCN)C(=O)N[C@@H](Cc1ccc(O)cc1)C(=O)N[C@@H](CC(C)C)C(=O)N[C@@H](CC(=O)O)C(=O)N[C@@H](C)C(=O)N[C@@H](CCCNC(=N)N)C(=O)N[C@@H](C)C(=O)N[C@@H](C)C(=O)N[C@@H](CCC(N)=O)C(=O)N[C@@H](CC(=O)O)C(=O)N[C@@H](Cc1ccccc1)C(=O)N[C@H](C(=O)N[C@@H](CCC(N)=O)C(=O)N[C@@H](Cc1c[nH]c2ccccc12)C(=O)N[C@@H](CC(C)C)C(=O)N[C@@H](CC(C)C)C(=O)N[C@@H](CC(=O)O)C(=O)N[C@H](C(N)=O)[C@@H](C)O)C(C)C)C(=O)O)C(=O)O | 0.9
– | – | CCCCCCCCCCCCCCCC(=O)N[C@@H](CCC(=O)N[C@@H](CCC(=O)NCCCC[C@H](NC(=O)[C@H](CC(=O)O)NC(=O)[C@H](CO)NC(=O)[C@@H](NC(=O)[C@H](Cc1ccccc1)NC(=O)[C@@H](NC(=O)CNC(=O)[C@H](CCC(N)=O)NC(=O)[C@@H](CO)NC(=O)[C@@H](N)Cc1c[nH]cn1)[C@@H](C)O)[C@@H](C)O)C(=O)N[C@@H](CO)C(=O)N[C@@H](CCCCN)C(=O)N[C@@H](Cc1ccc(O)cc1)C(=O)N[C@@H](CC(C)C)C(=O)N[C@@H](CC(=O)O)C(=O)N[C@@H](CCC(=O)O)C(=O)N[C@@H](CCCNC(=N)N)C(=O)N[C@@H](C)C(=O)N[C@@H](C)C(=O)N[C@@H](CCCCNC(=O)COCCOCCNC(=O)CCCCN=[N+]=[N-])C(=O)N[C@@H](CC(=O)O)C(=O)N[C@@H](Cc1ccccc1)C(=O)N[C@H](C(=O)N[C@@H](CCC(N)=O)C(=O)N[C@@H](Cc1c[nH]c2ccccc12)C(=O)N[C@@H](CC(C)C)C(=O)N[C@@H](CC(C)C)C(=O)N[C@@H](CC(=O)O)C(=O)N[C@H](C(N)=O)[C@@H](C)O)C(C)C)C(=O)O)C(=O)O | 0.8
0.028 nM | 0.013 nM | CCCCCCCCCCCCCCCC(=O)N[C@@H](CCC(=O)N[C@@H](CCC(=O)NCCCC[C@H](NC(=O)[C@H](CC(=O)O)NC(=O)[C@H](CO)NC(=O)[C@@H](NC(=O)[C@H](Cc1ccccc1)NC(=O)[C@@H](NC(=O)CNC(=O)[C@H](CCC(N)=O)NC(=O)[C@@H](CO)NC(=O)[C@@H](N)Cc1c[nH]cn1)[C@@H](C)O)[C@@H](C)O)C(=O)N[C@@H](CO)C(=O)N[C@@H](CCCCN)C(=O)N[C@@H](Cc1ccc(O)cc1)C(=O)N[C@@H](CC(C)C)C(=O)N[C@@H](CC(=O)O)C(=O)N[C@@H](CCC(=O)O)C(=O)N[C@@H](CCCNC(=N)N)C(=O)N[C@@H](C)C(=O)N[C@@H](C)C(=O)N[C@@H](CCC(N)=O)C(=O)N[C@@H](CCCCN=[N+]=[N-])C(=O)N[C@@H](Cc1ccccc1)C(=O)N[C@H](C(=O)N[C@@H](CCC(N)=O)C(=O)N[C@@H](Cc1c[nH]c2ccccc12)C(=O)N[C@@H](CC(C)C)C(=O)N[C@@H](CC(C)C)C(=O)N[C@@H](CC(=O)O)C(=O)N[C@H](C(N)=O)[C@@H](C)O)C(C)C)C(=O)O)C(=O)O | 0.5
